From patent US20250235422A1 (BiomEdit, Inc., priority 2024, published 2025)
“Also recorded” adds a separate entry of the source.

Test system: psoriasis and AD
Test: not given
Conditions: humans; cited from earlier work

Row | SMILES | effectiveness for treatment of psoriasis and AD
1 | CC(C)c1c(O)cc(/C=C/c2ccccc2)cc1O [Tapinarof, 3,5-dihydroxy-4-isopropyl-trans-stilbene] | effective

Molecular target: T1, AHR (Homo sapiens, UniProt P35869)
T1 sequence (P35869 11-848): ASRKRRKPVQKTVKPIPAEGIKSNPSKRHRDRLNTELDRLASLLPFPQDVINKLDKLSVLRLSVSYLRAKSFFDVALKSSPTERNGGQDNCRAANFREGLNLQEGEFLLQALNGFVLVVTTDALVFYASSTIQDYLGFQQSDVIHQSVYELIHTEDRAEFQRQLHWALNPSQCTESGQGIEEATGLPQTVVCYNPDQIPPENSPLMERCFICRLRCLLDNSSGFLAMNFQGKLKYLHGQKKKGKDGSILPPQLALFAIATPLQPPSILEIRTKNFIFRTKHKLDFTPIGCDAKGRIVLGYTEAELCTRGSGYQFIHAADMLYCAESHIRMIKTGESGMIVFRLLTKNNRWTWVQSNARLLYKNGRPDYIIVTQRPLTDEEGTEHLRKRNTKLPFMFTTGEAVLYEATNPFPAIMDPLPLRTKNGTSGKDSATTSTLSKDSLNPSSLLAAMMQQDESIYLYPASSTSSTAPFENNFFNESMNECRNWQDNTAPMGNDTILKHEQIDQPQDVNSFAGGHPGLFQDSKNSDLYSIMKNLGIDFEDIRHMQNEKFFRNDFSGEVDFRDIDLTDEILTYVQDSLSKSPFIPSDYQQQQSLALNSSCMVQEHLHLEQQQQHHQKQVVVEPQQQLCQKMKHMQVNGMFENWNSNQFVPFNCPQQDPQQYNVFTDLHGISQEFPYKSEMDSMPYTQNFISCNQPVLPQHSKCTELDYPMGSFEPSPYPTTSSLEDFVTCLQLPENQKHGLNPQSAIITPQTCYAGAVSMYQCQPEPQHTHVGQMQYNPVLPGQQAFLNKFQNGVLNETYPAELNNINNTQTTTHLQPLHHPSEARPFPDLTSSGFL
Test: not given
Conditions: AHR ligand activity; Table 1 reproduced from Barroso A et al., 2021; cited from earlier work

Row | SMILES | Activity
2 | CCCCC/C=C\C[C@@H](O)/C=C/C=C\C/C=C\CCCC(=O)O | Agonist
3 | O=C(O)c1cc(O)c2ccccc2c1O [1,4-dihydroxy-2-naphthoic acid (DHNA), 1,4-dihydroxy-2-naphthoic acid] | Agonist
4 | Clc1cc2c(cc1Cl)Oc1cc(Cl)c(Cl)cc1O2 [2,3,7,8-Tetrachlorodibenzop-dioxin] | Agonist
5 | COC(=O)c1csc(C(=O)c2c[nH]c3ccccc23)n1 [2-(19H-indole-39-carbonyl)-thiazole-4-carboxylic acid methyl ester] | Agonist
6 | c1ccc2c(Cc3[nH]c4ccccc4c3Cc3c[nH]c4ccccc34)c[nH]c2c1 [2-(Indol-3-ylmethyl)-3,39-diindolylmethane] | Agonist
7 | c1ccc2c(Cc3c[nH]c4ccccc34)c[nH]c2c1 [3,3-diindolylmethane (DIM), 3,3-diindolylmethane] | Agonist
8 | Cc1ccc2cc3c(ccc4ccccc43)c3c2c1CC3 [3-Methylcholanthrene] | Agonist
9 | Cc1c[nH]c2ccccc12 [3-Methylindole (Skatole), 3-Methylindole] | Partial
10 | COc1ccc(-c2cc(=O)c3ccccc3o2)cc1OC [3′4′-Dimethoxyflavone] | Partial
11 | COc1cc(-c2cc(=O)c3ccccc3o2)ccc1[N+](=O)[O-] [3′-methoxy-4′-nitroflavone (MNF), 3′-methoxy-4′-nitroflavone] | Antagonist
12 | N[C@@H](Cc1c[nH]c2ccc(O)cc12)C(=O)O [5-hydroxytryptophan (5HTP), 5-hydroxytryptophan] | Agonist
13 | O=Cc1c2c(cc3c1=Nc1ccccc1-3)=Nc1ccccc1-2 [6-Formylindolo [3,2-b] carbazole (FICZ), 6-Formylindolo [3,2-b] carbazole] | Agonist
14 | Cc1cc(Cl)cc2c1oc1cc(Cl)cc(Cl)c12 [6-Methyl-1,3,8-trichlorodibenzofuran] | Partial
15 | CC(C)c1cnn2c(N[C@@H]3CCc4[nH]c5ccccc5c4C3)nc(-c3cncc(F)c3)nc12 [AHR antagonist 5 (IK-775)] | Antagonist
16 | O=C(O)[C@H]1O[C@@H](Oc2cc3oc(-c4ccccc4)cc(=O)c3c(O)c2O)[C@H](O)[C@@H](O)[C@@H]1O [Baicalin] | AntAgonist
17 | O=c1cc(-c2ccccc2)oc2ccc3ccccc3c12 [Beta-naphthoflavone] | Agonist
18 | C=CC1=C(C)/C(=C/C2=NC(=C\c3[nH]c(/C=C4\NC(=O)C(C)=C4C=C)c(C)c3CCC(=O)O)/C(CCC(=O)O)=C2C)NC1=O [Biliverdin] | Agonist
19 | Cc1ccccc1N=Nc1ccc(NC(=O)c2ccnn2C)c(C)c1 [CH-223191] | AntAgonist

Row | SMILES | Activity
20 | Nc1c(C(=O)O)c2nc3c(C(=O)O)cccc3oc-2cc1=O [Cinnabarinic acid (CA), Cinnabarinic acid] | Agonist
21 | N#CCc1c[nH]c2ccccc12 [Indole-3-acetonitrile (IAN), Indole-3-acetonitrile] | Agonist
22 | O=Cc1c[nH]c2ccccc12 [Indole-3-aldehyde (I3CA), Indole-3-aldehyde] | Agonist
23 | OCc1c[nH]c2ccccc12 [Indole-3-carbinol (I3C), Indole-3-carbinol] | Agonist
24 | c1ccc2c(c1)N=c1cc3c(cc1-2)=Nc1ccccc1-3 [Indolo [3,2-b]carbazole (ICZ), Indolo [3,2-b]carbazole] | Agonist
25 | O=S(=O)(O)Oc1c[nH]c2ccccc12 [Indoxyl-3-sulfate (I3S), Indoxyl-3-sulfate] | Agonist
26 | Nc1ccccc1C(=O)C[C@H](N)C(=O)O [L-Kynurenine (Kyn), L-Kynurenine] | Agonist
27 | CCCCC[C@H](O)/C=C/C=C\C=C\C=C\[C@@H](O)[C@@H](O)CCCC(=O)O [Lipoxin A4] | Agonist
28 | O=Cc1c(Cc2c[nH]c3ccccc23)[nH]c2ccccc12 [Malassezin] | Agonist
29 | COc1cc2c(cc1O)C[C@@H]1NCCc3cc(OC)c(O)c-2c31 [Norisoboldine] | Agonist
30 | O=c1c(O)c(-c2ccc(O)c(O)c2)oc2cc(O)cc(O)c12 [Quercetin] | Partial
31 | CC(C)n1cnc2c(NCCc3ccc(O)cc3)nc(-c3csc4ccccc34)nc21 [StemRegenin 1 (SR1), StemRegenin 1] | AntAgonist
32 | CC1=C(CC(=O)O)c2cc(F)ccc2/C1=C\c1ccc([S+](C)[O-])cc1 (stereo not shown) [Sulindac] | Agonist
33 | CC(C)c1c(O)cc(/C=C/c2ccccc2)cc1O [Tapinarof, 3,5-dihydroxy-4-isopropyl-trans-stilbene] | Agonist
34 | NCCc1c[nH]c2ccccc12 [Tryptamine] | Agonist
35 | O=C1c2ccccc2-n2c1nc1ccccc1c2=O [Tryptanthrin] | Agonist
36 | FC(F)(F)c1ccc(Nc2nccc(-c3cccc(Cl)c3)n2)cc1 [VAF347] | Agonist
37 | O=C(O)c1cc(O)c2cccc(O)c2n1 [Xanthurenic acid] | Agonist

Same assay, conditions: cited from earlier work

Row | SMILES | Activity
38 | O=C(O)Cc1ccccc1Nc1c(Cl)cccc1Cl [Diclofenac] | Agonist
39 | c1ccc2[nH]ccc2c1 [Indole] | Agonist

Test system: not listed separately
Test: Light stability and hydrophobicity observed during development
Assay type: physicochemical
Conditions: light exposure

Row | SMILES | photostability
40 | CC=CC=CC=CC=CC=CC(=O)O [DDPA, dodeca-2,4,6,8,10-pentaenoic acid] | photolabile; also recorded: photodecomposition leads to a loss of potency
